Results: the supplement of paper PMC13380429

How the values were obtained:
Conditions in all cases: 72 h
Caco-2 [1] = experiment: cell viability relative to DMSO; higher = less toxic
Calu-3 [2] = experiment: as above
HepG2 [3] = experiment: as above
U2OS [4] = experiment: as above
Vero E6 [5] = experiment: as above
Caco-2 [6] = experiment: relative viability EC50 (midpoint between 100% and the lowest measured viability); higher = less toxic
Calu-3 [7] = experiment: as above
HepG2 [8] = experiment: as above
U2OS [9] = experiment: as above
Vero E6 [10] = experiment: as above
Caco-2 [11] = experiment: drug sensitivity score (DSS) for viability; higher = more toxic; extreme values may be limits of the assay
Calu-3 [12] = experiment: as above
HepG2 [13] = experiment: as above
U2OS [14] = experiment: as above
Vero E6 [15] = experiment: as above

SMILES | cell viability (Caco-2 [1]; 1 nM) [%] | cell viability (Caco-2 [1]; 10 nM) [%] | cell viability (Caco-2 [1]; 100 nM) [%] | cell viability (Caco-2 [1]; 1000 nM) [%] | cell viability (Caco-2 [1]; 10000 nM) [%] | cell viability (Calu-3 [2]; 1 nM) [%] | cell viability (Calu-3 [2]; 10 nM) [%] | cell viability (Calu-3 [2]; 100 nM) [%] | cell viability (Calu-3 [2]; 1000 nM) [%] | cell viability (Calu-3 [2]; 10000 nM) [%] | cell viability (HepG2 [3]; 1 nM) [%] | cell viability (HepG2 [3]; 10 nM) [%] | cell viability (HepG2 [3]; 100 nM) [%] | cell viability (HepG2 [3]; 1000 nM) [%] | cell viability (HepG2 [3]; 10000 nM) [%] | cell viability (U2OS [4]; 1 nM) [%] | cell viability (U2OS [4]; 10 nM) [%] | cell viability (U2OS [4]; 100 nM) [%] | cell viability (U2OS [4]; 1000 nM) [%] | cell viability (U2OS [4]; 10000 nM) [%] | cell viability (Vero E6 [5]; 1 nM) [%] | cell viability (Vero E6 [5]; 10 nM) [%] | cell viability (Vero E6 [5]; 100 nM) [%] | cell viability (Vero E6 [5]; 1000 nM) [%] | cell viability (Vero E6 [5]; 10000 nM) [%] | relative viability EC50 (Caco-2 [6]) [µM] | relative viability EC50 (Calu-3 [7]) [µM] | relative viability EC50 (HepG2 [8]) [µM] | relative viability EC50 (U2OS [9]) [µM] | relative viability EC50 (Vero E6 [10]) [µM] | drug sensitivity score (Caco-2 [11]) | drug sensitivity score (Calu-3 [12]) | drug sensitivity score (HepG2 [13]) | drug sensitivity score (U2OS [14]) | drug sensitivity score (Vero E6 [15])
CS(=O)(=O)OC[C@H](O)[C@@H](O)COS(C)(=O)=O [treosulfan] | 95.6 | 96.4 | 102 | 90.9 | 99.3 | 105 | 104 | 102 | 98.8 | 111 | 93.1 | 93.6 | 94.6 | 108 | 108 | 104 | 94.7 | 103 | 94 | 99.2 | 92.3 | 100 | 92.5 | 98.2 | 106 | > 10 | > 10 | > 10 | > 10 | > 10 | 0 | 0 | 0 | 0 | 0
CCCN[C@H]1CCc2nc(N)sc2C1 [pramipexole] | 97.3 | 103 | 99.7 | 96.8 | 107 | 91.7 | 111 | 107 | 102 | 110 | 88.2 | 90.8 | 109 | 99.3 | 108 | 96.2 | 98.2 | 95.5 | 98.6 | 103 | 104 | 104 | 105 | 99 | 101 | > 10 | > 10 | > 10 | > 10 | > 10 | 0 | 0 | 0 | 0 | 0
C=CCN1C[C@H](C)N([C@H](c2ccc(C(=O)N(CC)CC)cc2)c2cccc(O)c2)C[C@H]1C [BW-373U86] | 101 | 102 | 96.1 | 96.7 | 95.2 | 92.9 | 103 | 107 | 102 | 101 | 95.5 | 93.7 | 101 | 86.9 | 96.3 | 100 | 102 | 96 | 104 | 97.8 | 105 | 100 | 105 | 94.9 | 104 | > 10 | > 10 | > 10 | > 10 | > 10 | 0 | 0 | 0 | 0 | 0
O=C(/C=C/c1ccc2ccc(C(F)(F)F)cc2n1)c1ccncc1 [PFK-158] | 95.9 | 92.8 | 102 | 92.3 | 88.2 | 92.1 | 96.3 | 90.5 | 104 | 89.9 | 97.1 | 84.6 | 96.3 | 102 | 44.9 | 94.4 | 100 | 93.9 | 101 | 0 | 105 | 86.7 | 110 | 92.1 | 87.3 | > 10 | > 10 | 3.37 | 3.22 | > 10 | 0 | 0 | 2.8 | 5.5 | 0.5
COC(=O)C1=C(C#N)NC(C)=C(C(=O)OC(C)C)C1c1cccc([N+](=O)[O-])c1 (stereo not given) [nilvadipine] | 96.1 | 84.7 | 92.7 | 94.1 | 96 | 90.9 | 101 | 90.8 | 97.5 | 120 | 108 | 98.6 | 109 | 96.1 | 95 | 96.6 | 98.4 | 97 | 96.7 | 104 | 95.9 | 93.6 | 100 | 97.9 | 109 | > 10 | > 10 | > 10 | > 10 | > 10 | 0 | 0 | 0 | 0 | 0
O=C(CCCCCCC(=O)Nc1ccccc1)NO [vorinostat] | 89.9 | 99.9 | 93.9 | 93.9 | 2.5 | 96.1 | 96.9 | 87.2 | 62.1 | 20.2 | 111 | 98.2 | 98.1 | 69.8 | 3 | 97.4 | 96.3 | 94.9 | 79.5 | 2.2 | 99.5 | 99.5 | 103 | 88.9 | 0.3 | 2.66 | 0.91 | 1.37 | 1.7 | 2.25 | 6.3 | 9.1 | 9.7 | 8.7 | 7.3
CC(=O)OCC(=O)[C@@]1(O)CC[C@H]2[C@@H]3CCC4=CC(=O)C=C[C@]4(C)[C@H]3[C@@H](O)C[C@@]21C [prednisolone-acetate] | 110 | 108 | 93.3 | 106 | 85.8 | 99.5 | 92.3 | 82.6 | 87 | 98.1 | 107 | 106 | 93.1 | 90.9 | 114 | 110 | 106 | 100 | 101 | 97.8 | 99.5 | 106 | 104 | 102 | 94.4 | > 10 | > 10 | > 10 | > 10 | > 10 | 0.1 | 0 | 0 | 0 | 0
CN1[C@@H]2CC[C@H]1C[C@@H](OC(=O)N1Cc3ccccc3NC1=O)C2 [DAU-5884] | 93.3 | 91.7 | 89.5 | 97.3 | 92.7 | 96.5 | 105 | 98.1 | 99.3 | 94.4 | 105 | 93.3 | 94.5 | 110 | 97.3 | 97.2 | 102 | 94.4 | 100 | 100 | 101 | 94.6 | 97.9 | 96.8 | 91.3 | > 10 | > 10 | > 10 | > 10 | > 10 | 0 | 0 | 0 | 0 | 0
c1ccc2c(c1)CCCc1cc(NCCN3CCOCC3)nnc1-2 | 97.7 | 99.2 | 96.1 | 105 | 87.7 | 99.7 | 105 | 96.1 | 113 | 94.9 | 101 | 101 | 94.4 | 87.7 | 101 | 97.1 | 99.7 | 92.9 | 98.1 | 96.6 | 104 | 98.9 | 108 | 104 | 99 | > 10 | > 10 | > 10 | > 10 | > 10 | 0 | 0 | 0 | 0 | 0
Cc1ccccc1CN1C(=O)C2=C(CCN(Cc3ccccc3)C2)N2CCN=C12 [ONC201] | 108 | 106 | 93.4 | 107 | 44.1 | 103 | 103 | 102 | 106 | 75.7 | 108 | 93.7 | 104 | 91.6 | 10.3 | 100 | 102 | 95.4 | 106 | 41.1 | 110 | 101 | 103 | 102 | 32.2 | 3.72 | > 10 | 2.39 | 3.64 | 3.35 | 2.5 | 0.6 | 6.3 | 2.8 | 3.5
COc1cc(F)c(C(C)C)cc1-c1ccc(C(F)(F)F)cc1CN1C(=O)O[C@H](c2cc(C(F)(F)F)cc(C(F)(F)F)c2)[C@@H]1C [anacetrapib] | 98.1 | 90.8 | 100 | 96.1 | 93.8 | 97.7 | 97 | 108 | 93.6 | 102 | 108 | 103 | 98.2 | 92.6 | 98.8 | 96.6 | 100 | 101 | 99.8 | 97.7 | 108 | 107 | 97.6 | 102 | 93.2 | > 10 | > 10 | > 10 | > 10 | > 10 | 0 | 0 | 0 | 0 | 0
O=C(NCCCCN1CCN(c2cccc(Cl)c2Cl)CC1)c1ccc2c(c1)Cc1ccccc1-2 [NGB-2904] | 89.4 | 97.2 | 97 | 109 | 103 | 94.3 | 97.9 | 86.5 | 108 | 99.9 | 107 | 94.1 | 99.3 | 91.2 | 92.9 | 93.5 | 102 | 95.6 | 102 | 100 | 96.7 | 91.2 | 93.6 | 89.5 | 98.3 | > 10 | > 10 | > 10 | > 10 | > 10 | 0 | 0 | 0 | 0 | 0
CC(N)Cc1ccc(O)cc1 (stereo not given) [hydroxyamphetamine] | 107 | 92.8 | 94.2 | 98.7 | 99.5 | 92.5 | 94.4 | 98.7 | 100 | 107 | 102 | 103 | 93.4 | 93.7 | 96 | 98.6 | 101 | 96.2 | 102 | 94.5 | 99.9 | 102 | 99.4 | 95.1 | 104 | > 10 | > 10 | > 10 | > 10 | > 10 | 0 | 0 | 0 | 0 | 0
CN(C)C(=N)NCCC[C@H](N)C(=O)O [asymmetrical-dimethylarginine] | 101 | 99.4 | 97.9 | 93.3 | 101 | 107 | 99.9 | 112 | 102 | 97.9 | 86.7 | 96.8 | 95.1 | 105 | 101 | 100 | 93.2 | 96.2 | 93.5 | 97 | 97.4 | 101 | 96.5 | 101 | 90.7 | > 10 | > 10 | > 10 | > 10 | > 10 | 0 | 0 | 0 | 0 | 0
